Source: US20100160351A1, “PHARMACEUTICAL COMPOSITIONS AND METHODS FOR TREATING HYPERURICEMIA AND RELATED DISORDERS” (NUON THERAPEUTICS, INC., priority 2008, published 2010)

Tested on: serum uric acid (sUA) levels in hyperuricemic patients
Assay: PRESTO study: change in serum uric acid in hyperuricemic patients (baseline >=8 mg/dL), Tranilast twice daily for 1 or 3 months
Format: in vivo, human
Experimental: The PRESTO (Prevention of Restenosis with Tranilast and its Outcomes) study was a multicenter study of ˜11,500 patients undergoing percutaneous transluminal coronary revascularization (PTCR) with or without stenting for single or multiple vessels over a 9-month period. The study compared the composite clinical event rate of death, myocardial infarction, or need for ischemia-driven target vessel revascularization in patients treated with Tranilast (300 and 450 mg twice daily) for 1 or 3 months versus placebo. Description of the study protocol and patient population can be found in Holmes et al., The PRESTO (Prevention of Restenosis with Tranilast and its Outcomes) protocol: A double-blind, placebo-controlled trial, Am Heart J 2000; 139:23-31; and Holmes et al., Results of Prevention of REStenosis with Tranilast and its Outcomes (PRESTO) Trial, Circulation. 2002; 106:1243, both of which are incorporated by reference herein in their entirety.
Gout was a contraindication for patient enrollment in the PRESTO trial. Nevertheless, 1100 patients enrolled in the trial were identified with baseline hyperuricemia defined as initial serum uric acid (sUA) levels greater than or equal to 7 mg/dL. Of these, approximately 300 participants had baseline serum uric acid levels greater than or equal to 8 mg/dL. […] As indicated in FIG. 1 and Table 4, some patients were treated with placebo, some patients were treated with Tranilast for 4 weeks followed by placebo, and some patients were treated with Tranilast for 12 weeks.

COc1ccc(/C=C/C(=O)Nc2ccccc2C(=O)O)cc1OC [Tranilast, 2-[[3-(3,4-dimethoxyphenyl)-1-oxo-2-propenyl]amino]benzoic acid]
Change from Baseline in Uric Acid, Max (3M TRAN 300 mg, Follow-Up): 3.04 mg/dL | Change from Baseline in Uric Acid, Mean (SD) (3M TRAN 300 mg, Follow-Up): −0.00 (1.519) mg/dL | Change from Baseline in Uric Acid, Median (3M TRAN 300 mg, Follow-Up): -0.13 mg/dL | Change from Baseline in Uric Acid, Min (3M TRAN 300 mg, Follow-Up): -3.00 mg/dL | Change from Baseline in Uric Acid, Max (3M TRAN 300 mg, Post-PTCR): 1.90 mg/dL | Change from Baseline in Uric Acid, Mean (SD) (3M TRAN 300 mg, Post-PTCR): −1.81 (1.966) mg/dL | Change from Baseline in Uric Acid, Median (3M TRAN 300 mg, Post-PTCR): -1.58 mg/dL | Change from Baseline in Uric Acid, Min (3M TRAN 300 mg, Post-PTCR): -14.79 mg/dL | Change from Baseline in Uric Acid, Max (3M TRAN 300 mg, Week 1): 3.14 mg/dL | Change from Baseline in Uric Acid, Mean (SD) (3M TRAN 300 mg, Week 1): −2.96 (2.394) mg/dL | Change from Baseline in Uric Acid, Median (3M TRAN 300 mg, Week 1): -2.85 mg/dL | Change from Baseline in Uric Acid, Min (3M TRAN 300 mg, Week 1): -15.66 mg/dL | Change from Baseline in Uric Acid, Max (3M TRAN 300 mg, Week 2): 2.30 mg/dL | Change from Baseline in Uric Acid, Mean (SD) (3M TRAN 300 mg, Week 2): −2.98 (2.224) mg/dL | Change from Baseline in Uric Acid, Median (3M TRAN 300 mg, Week 2): -2.94 mg/dL | Change from Baseline in Uric Acid, Min (3M TRAN 300 mg, Week 2): -15.09 mg/dL | Change from Baseline in Uric Acid, Max (3M TRAN 300 mg, Week 3): 1.92 mg/dL | Change from Baseline in Uric Acid, Mean (SD) (3M TRAN 300 mg, Week 3): −2.92 (1.946) mg/dL | Change from Baseline in Uric Acid, Median (3M TRAN 300 mg, Week 3): -3.00 mg/dL | Change from Baseline in Uric Acid, Min (3M TRAN 300 mg, Week 3): -6.13 mg/dL | Change from Baseline in Uric Acid, Max (3M TRAN 300 mg, Week 4): 1.98 mg/dL | Change from Baseline in Uric Acid, Mean (SD) (3M TRAN 300 mg, Week 4): −2.83 (2.212) mg/dL | Change from Baseline in Uric Acid, Median (3M TRAN 300 mg, Week 4): -2.80 mg/dL | Change from Baseline in Uric Acid, Min (3M TRAN 300 mg, Week 4): -14.30 mg/dL | Change from Baseline in Uric Acid, Max (3M TRAN 300 mg, Week 6): 8.50 mg/dL | Change from Baseline in Uric Acid, Mean (SD) (3M TRAN 300 mg, Week 6): −2.75 (2.755) mg/dL | Change from Baseline in Uric Acid, Median (3M TRAN 300 mg, Week 6): -3.00 mg/dL | Change from Baseline in Uric Acid, Min (3M TRAN 300 mg, Week 6): -15.65 mg/dL | Change from Baseline in Uric Acid, Max (3M TRAN 300 mg, Week 8): 1.70 mg/dL | Change from Baseline in Uric Acid, Mean (SD) (3M TRAN 300 mg, Week 8): −2.76 (2.451) mg/dL | Change from Baseline in Uric Acid, Median (3M TRAN 300 mg, Week 8): -2.71 mg/dL | Change from Baseline in Uric Acid, Min (3M TRAN 300 mg, Week 8): -15.77 mg/dL | Change from Baseline in Uric Acid, Max (3M TRAN 300 mg, Week 10): 2.30 mg/dL | Change from Baseline in Uric Acid, Mean (SD) (3M TRAN 300 mg, Week 10): −2.97 (2.490) mg/dL | Change from Baseline in Uric Acid, Median (3M TRAN 300 mg, Week 10): -2.98 mg/dL | Change from Baseline in Uric Acid, Min (3M TRAN 300 mg, Week 10): -15.65 mg/dL | Change from Baseline in Uric Acid, Max (3M TRAN 300 mg, Week 12): 3.60 mg/dL | Change from Baseline in Uric Acid, Mean (SD) (3M TRAN 300 mg, Week 12): −2.74 (2.634) mg/dL | Change from Baseline in Uric Acid, Median (3M TRAN 300 mg, Week 12): -2.69 mg/dL | Change from Baseline in Uric Acid, Min (3M TRAN 300 mg, Week 12): -16.02 mg/dL | Change from Baseline in Uric Acid, Max (3M TRAN 450 mg, Follow-Up): 1.80 mg/dL | Change from Baseline in Uric Acid, Mean (SD) (3M TRAN 450 mg, Follow-Up): −0.67 (1.277) mg/dL | Change from Baseline in Uric Acid, Median (3M TRAN 450 mg, Follow-Up): -0.70 mg/dL | Change from Baseline in Uric Acid, Min (3M TRAN 450 mg, Follow-Up): -2.90 mg/dL | Change from Baseline in Uric Acid, Max (3M TRAN 450 mg, Post-PTCR): 1.70 mg/dL | Change from Baseline in Uric Acid, Mean (SD) (3M TRAN 450 mg, Post-PTCR): −2.16 (1.577) mg/dL | Change from Baseline in Uric Acid, Median (3M TRAN 450 mg, Post-PTCR): -1.90 mg/dL | Change from Baseline in Uric Acid, Min (3M TRAN 450 mg, Post-PTCR): -7.34 mg/dL | Change from Baseline in Uric Acid, Max (3M TRAN 450 mg, Week 1): 0.90 mg/dL | Change from Baseline in Uric Acid, Mean (SD) (3M TRAN 450 mg, Week 1): −3.84 (1.839) mg/dL | Change from Baseline in Uric Acid, Median (3M TRAN 450 mg, Week 1): -3.99 mg/dL | Change from Baseline in Uric Acid, Min (3M TRAN 450 mg, Week 1): -8.79 mg/dL | Change from Baseline in Uric Acid, Max (3M TRAN 450 mg, Week 2): 0.92 mg/dL | Change from Baseline in Uric Acid, Mean (SD) (3M TRAN 450 mg, Week 2): −4.05 (1.861) mg/dL | Change from Baseline in Uric Acid, Median (3M TRAN 450 mg, Week 2): -4.56 mg/dL | Change from Baseline in Uric Acid, Min (3M TRAN 450 mg, Week 2): -8.72 mg/dL | Change from Baseline in Uric Acid, Max (3M TRAN 450 mg, Week 3): 1.50 mg/dL | Change from Baseline in Uric Acid, Mean (SD) (3M TRAN 450 mg, Week 3): −2.84 (2.227) mg/dL | Change from Baseline in Uric Acid, Median (3M TRAN 450 mg, Week 3): -3.79 mg/dL | Change from Baseline in Uric Acid, Min (3M TRAN 450 mg, Week 3): -5.79 mg/dL | Change from Baseline in Uric Acid, Max (3M TRAN 450 mg, Week 4): 1.43 mg/dL | Change from Baseline in Uric Acid, Mean (SD) (3M TRAN 450 mg, Week 4): −3.70 (2.190) mg/dL | Change from Baseline in Uric Acid, Median (3M TRAN 450 mg, Week 4): -3.90 mg/dL | Change from Baseline in Uric Acid, Min (3M TRAN 450 mg, Week 4): -8.40 mg/dL | Change from Baseline in Uric Acid, Max (3M TRAN 450 mg, Week 6): 2.70 mg/dL | Change from Baseline in Uric Acid, Mean (SD) (3M TRAN 450 mg, Week 6): −3.89 (2.265) mg/dL | Change from Baseline in Uric Acid, Median (3M TRAN 450 mg, Week 6): -4.39 mg/dL | Change from Baseline in Uric Acid, Min (3M TRAN 450 mg, Week 6): -8.69 mg/dL | Change from Baseline in Uric Acid, Max (3M TRAN 450 mg, Week 8): 1.40 mg/dL | Change from Baseline in Uric Acid, Mean (SD) (3M TRAN 450 mg, Week 8): −3.65 (2.104) mg/dL | Change from Baseline in Uric Acid, Median (3M TRAN 450 mg, Week 8): -3.83 mg/dL | Change from Baseline in Uric Acid, Min (3M TRAN 450 mg, Week 8): -7.16 mg/dL | Change from Baseline in Uric Acid, Max (3M TRAN 450 mg, Week 10): 1.50 mg/dL | Change from Baseline in Uric Acid, Mean (SD) (3M TRAN 450 mg, Week 10): −3.73 (2.306) mg/dL | Change from Baseline in Uric Acid, Median (3M TRAN 450 mg, Week 10): -4.10 mg/dL | Change from Baseline in Uric Acid, Min (3M TRAN 450 mg, Week 10): -8.60 mg/dL | Change from Baseline in Uric Acid, Max (3M TRAN 450 mg, Week 12): 0.50 mg/dL | Change from Baseline in Uric Acid, Mean (SD) (3M TRAN 450 mg, Week 12): −3.79 (2.065) mg/dL | Change from Baseline in Uric Acid, Median (3M TRAN 450 mg, Week 12): -4.30 mg/dL | Change from Baseline in Uric Acid, Min (3M TRAN 450 mg, Week 12): -8.12 mg/dL | serum uric acid levels in patients treated with Tranilast (analysis of PRESTO data, 300 and 450 mg twice daily): markedly decreased
